Assay results as given in patent US8815872B2, “Macrocyclics pyrimidines as aurora kinase inhibitors” (Merck Patent GmbH, priority 2008, dated 2014).

What was measured:
Assay in all cases: Other kinases, single-concentration inhibition (Table 3)
[1] = tested on: AMPK(r); type: biochemical, rat
Description: (§1) The Aurora and other kinase assays described here were performed on two Caliper Life Sciences systems, the LC3000 and the Desktop Profiler. These provide data on enzyme activity via measurement of the relative amounts of phosphorylated or unphosphorylated fluorescently labelled substrate peptide at the end of an enzymatic reaction. These different states of peptide are resolved by applying a potential difference across the sample. The presence of a charged phosphate group on the product (as opposed to the substrate) causes a different peptide mobility between the two peptides. This is visualized by excitation of a fluorescent label on the substrate and product peptides and represented as peaks within the analysis software.
(§2) The Desktop Profiler utilizes the same principal as the LC 3000 for calculating percentage conversion of a substrate to product. Caliper Life Sciences provided proprietary flash frozen pre-made 384 well plates containing selected kinases. Each column in the 384 well plate contained a particular selected kinase. A second plate, the ‘substrate plate’ contained a mix of fluorescently labeled peptide substrate and ATP. These were arranged in columns so that transfer for substrate plate to enzyme plate provided the correct enzyme with the correct substrate/ATP concentration.
(§3) Compounds were added to a thawed enzyme plate in the desired format, in single concentrations. Reactions were initiated by transfer of the ubstrate/ATP mix from the substrate plate. The enzyme plate was incubated for 90 mins at 25 °C. The reaction was stopped by addition of […] of Stop Buffer (100 mM HEPES pH 7.5, 0.015% Brij-35, 10 mM EDTA (Sigma, E7889)).
(§4) Plates were read in a manner identical to that of the LC3000, and the ratio between substrate and product peaks provided the activity of the enzyme in that well. This was best represented by a plate heat map which colors each well by percent inhibition as compared to positive and negative controls (no inhibitors and no ATP respectively).

[2] = target: T1, Ret(h) (Homo sapiens, UniProt P07949); type: biochemical
T1 construct: purchased Caliper Life Sciences
T1 sequence (P07949 29-1114): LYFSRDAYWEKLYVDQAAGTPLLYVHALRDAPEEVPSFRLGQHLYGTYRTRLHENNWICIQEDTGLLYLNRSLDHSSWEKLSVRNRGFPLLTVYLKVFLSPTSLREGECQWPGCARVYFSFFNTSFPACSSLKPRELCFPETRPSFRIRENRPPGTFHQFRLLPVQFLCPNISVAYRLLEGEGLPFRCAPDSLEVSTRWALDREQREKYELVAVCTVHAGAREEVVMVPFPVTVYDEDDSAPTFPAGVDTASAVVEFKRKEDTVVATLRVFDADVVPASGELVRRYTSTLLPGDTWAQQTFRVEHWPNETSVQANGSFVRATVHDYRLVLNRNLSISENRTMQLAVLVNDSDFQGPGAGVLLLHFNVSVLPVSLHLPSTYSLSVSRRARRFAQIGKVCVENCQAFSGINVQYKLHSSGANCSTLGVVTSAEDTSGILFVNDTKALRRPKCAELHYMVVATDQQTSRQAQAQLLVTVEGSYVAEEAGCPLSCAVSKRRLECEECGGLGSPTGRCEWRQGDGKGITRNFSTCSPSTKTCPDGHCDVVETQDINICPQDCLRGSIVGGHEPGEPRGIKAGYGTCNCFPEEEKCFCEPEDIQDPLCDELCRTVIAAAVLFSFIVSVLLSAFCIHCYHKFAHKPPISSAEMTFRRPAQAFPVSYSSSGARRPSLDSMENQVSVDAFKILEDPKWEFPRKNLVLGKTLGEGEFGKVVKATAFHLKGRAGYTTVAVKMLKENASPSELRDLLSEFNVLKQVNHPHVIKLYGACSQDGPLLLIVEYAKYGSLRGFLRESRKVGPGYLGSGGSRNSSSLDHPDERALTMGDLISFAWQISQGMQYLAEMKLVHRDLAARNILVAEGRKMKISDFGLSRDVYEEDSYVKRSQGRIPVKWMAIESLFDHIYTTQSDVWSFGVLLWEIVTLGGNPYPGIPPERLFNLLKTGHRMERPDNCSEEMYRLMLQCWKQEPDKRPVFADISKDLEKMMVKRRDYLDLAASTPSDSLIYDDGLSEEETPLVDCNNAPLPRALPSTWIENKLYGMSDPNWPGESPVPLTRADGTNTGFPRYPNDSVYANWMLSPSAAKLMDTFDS
Description: as §1, §2, §3, §4

[3] = target: T2, IRAK4(h) (Homo sapiens, UniProt Q9NWZ3); type: biochemical
T2 construct: purchased Caliper Life Sciences
T2 sequence (Q9NWZ3 1-460): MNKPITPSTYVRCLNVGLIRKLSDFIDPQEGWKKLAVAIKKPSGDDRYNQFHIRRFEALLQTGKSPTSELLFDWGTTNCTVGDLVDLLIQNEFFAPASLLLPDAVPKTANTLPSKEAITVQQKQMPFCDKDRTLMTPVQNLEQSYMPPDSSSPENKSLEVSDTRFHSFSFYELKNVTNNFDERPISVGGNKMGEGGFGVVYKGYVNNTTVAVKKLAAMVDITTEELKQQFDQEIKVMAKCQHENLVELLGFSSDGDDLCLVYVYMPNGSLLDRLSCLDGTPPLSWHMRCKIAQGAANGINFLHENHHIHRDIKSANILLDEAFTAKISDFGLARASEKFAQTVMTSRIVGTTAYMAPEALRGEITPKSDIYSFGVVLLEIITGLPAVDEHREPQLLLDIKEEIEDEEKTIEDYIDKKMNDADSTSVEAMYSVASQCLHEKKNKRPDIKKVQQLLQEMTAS
Description: as §1, §2, §3, §4

[4] = target: T3, Tie2(R849W)(h) (Homo sapiens, UniProt Q02763, R849W); type: biochemical
T3 construct: purchased Caliper Life Sciences
T3 sequence (Q02763 23-1124 R849W): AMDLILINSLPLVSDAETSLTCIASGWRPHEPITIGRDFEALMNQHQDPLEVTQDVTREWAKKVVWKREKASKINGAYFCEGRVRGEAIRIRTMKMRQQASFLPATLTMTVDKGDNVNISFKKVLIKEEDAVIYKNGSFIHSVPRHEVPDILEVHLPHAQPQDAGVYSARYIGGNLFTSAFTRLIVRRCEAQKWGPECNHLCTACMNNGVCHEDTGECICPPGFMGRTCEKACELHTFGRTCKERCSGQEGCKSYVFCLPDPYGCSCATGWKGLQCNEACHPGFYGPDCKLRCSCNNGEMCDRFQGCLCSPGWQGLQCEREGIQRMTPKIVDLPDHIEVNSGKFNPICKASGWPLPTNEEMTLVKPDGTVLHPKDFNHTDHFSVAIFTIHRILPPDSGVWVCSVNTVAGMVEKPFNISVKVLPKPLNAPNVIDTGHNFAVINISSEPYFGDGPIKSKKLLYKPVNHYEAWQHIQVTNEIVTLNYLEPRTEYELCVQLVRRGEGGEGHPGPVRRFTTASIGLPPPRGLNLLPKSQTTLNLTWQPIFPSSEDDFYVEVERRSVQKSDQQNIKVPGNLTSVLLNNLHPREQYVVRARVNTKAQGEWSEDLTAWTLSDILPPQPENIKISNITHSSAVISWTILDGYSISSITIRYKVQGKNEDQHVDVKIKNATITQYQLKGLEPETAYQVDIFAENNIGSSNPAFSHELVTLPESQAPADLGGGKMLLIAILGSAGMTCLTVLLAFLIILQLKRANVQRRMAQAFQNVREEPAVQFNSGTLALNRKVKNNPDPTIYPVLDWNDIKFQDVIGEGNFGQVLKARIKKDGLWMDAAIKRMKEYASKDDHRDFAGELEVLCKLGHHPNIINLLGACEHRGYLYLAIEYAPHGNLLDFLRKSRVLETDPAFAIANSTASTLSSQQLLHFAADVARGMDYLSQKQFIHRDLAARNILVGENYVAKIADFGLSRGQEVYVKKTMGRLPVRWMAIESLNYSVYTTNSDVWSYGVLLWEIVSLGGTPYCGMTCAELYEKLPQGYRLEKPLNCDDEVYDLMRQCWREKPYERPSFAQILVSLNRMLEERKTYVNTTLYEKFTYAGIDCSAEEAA
Description: as §1, §2, §3, §4

[5] = target: T4, Abl(T315I)(h) (Homo sapiens, UniProt P00519, T315I); type: biochemical
T4 construct: purchased Caliper Life Sciences
Description: as §1, §2, §3, §4

[6] = target: T5, PDK1(h) (Homo sapiens, UniProt O15530); type: biochemical
T5 construct: purchased Caliper Life Sciences
T5 sequence (O15530 1-556): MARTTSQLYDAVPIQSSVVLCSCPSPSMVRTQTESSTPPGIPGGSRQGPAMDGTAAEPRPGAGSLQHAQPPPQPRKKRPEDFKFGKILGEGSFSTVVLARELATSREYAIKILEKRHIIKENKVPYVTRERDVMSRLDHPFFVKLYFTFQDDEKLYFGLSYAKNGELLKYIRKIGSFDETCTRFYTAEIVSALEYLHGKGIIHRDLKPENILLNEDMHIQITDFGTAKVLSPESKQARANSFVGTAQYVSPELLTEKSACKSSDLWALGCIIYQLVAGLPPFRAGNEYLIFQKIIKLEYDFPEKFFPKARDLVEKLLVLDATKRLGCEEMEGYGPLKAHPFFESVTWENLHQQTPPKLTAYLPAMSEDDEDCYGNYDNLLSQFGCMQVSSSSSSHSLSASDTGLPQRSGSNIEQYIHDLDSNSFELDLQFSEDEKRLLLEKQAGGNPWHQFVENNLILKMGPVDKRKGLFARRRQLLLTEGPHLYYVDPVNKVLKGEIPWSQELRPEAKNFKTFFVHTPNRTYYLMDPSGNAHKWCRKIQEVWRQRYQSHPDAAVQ
Description: as §1, §2, §3, §4

[7] = target: T6, FGFR4(h) (Homo sapiens, UniProt P22455); type: biochemical
T6 construct: purchased Caliper Life Sciences
T6 sequence (P22455 22-802): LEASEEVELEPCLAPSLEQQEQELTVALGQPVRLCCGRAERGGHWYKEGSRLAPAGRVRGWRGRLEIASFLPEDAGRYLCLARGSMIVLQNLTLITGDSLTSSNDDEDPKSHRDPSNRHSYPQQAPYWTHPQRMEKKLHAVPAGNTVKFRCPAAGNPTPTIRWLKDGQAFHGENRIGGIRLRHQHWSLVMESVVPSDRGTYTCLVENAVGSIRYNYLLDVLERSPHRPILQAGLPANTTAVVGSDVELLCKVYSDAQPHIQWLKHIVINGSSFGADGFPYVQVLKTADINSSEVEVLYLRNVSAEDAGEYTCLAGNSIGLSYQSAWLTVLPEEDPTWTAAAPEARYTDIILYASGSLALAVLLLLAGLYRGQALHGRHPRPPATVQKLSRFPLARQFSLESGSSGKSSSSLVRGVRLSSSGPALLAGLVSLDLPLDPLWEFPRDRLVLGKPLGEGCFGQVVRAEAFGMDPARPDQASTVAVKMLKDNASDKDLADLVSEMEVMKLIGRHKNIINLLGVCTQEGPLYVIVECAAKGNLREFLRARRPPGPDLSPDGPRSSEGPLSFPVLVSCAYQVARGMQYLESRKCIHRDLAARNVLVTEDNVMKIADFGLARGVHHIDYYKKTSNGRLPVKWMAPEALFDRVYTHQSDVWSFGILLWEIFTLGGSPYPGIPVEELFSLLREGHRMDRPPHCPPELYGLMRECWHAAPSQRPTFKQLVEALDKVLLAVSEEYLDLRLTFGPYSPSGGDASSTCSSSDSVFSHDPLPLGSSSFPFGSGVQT
Description: as §1, §2, §3, §4

[8] = target: T7, ZIPK(h) (Homo sapiens, UniProt O43293); type: biochemical
T7 construct: purchased Caliper Life Sciences
T7 sequence (O43293 whole entry): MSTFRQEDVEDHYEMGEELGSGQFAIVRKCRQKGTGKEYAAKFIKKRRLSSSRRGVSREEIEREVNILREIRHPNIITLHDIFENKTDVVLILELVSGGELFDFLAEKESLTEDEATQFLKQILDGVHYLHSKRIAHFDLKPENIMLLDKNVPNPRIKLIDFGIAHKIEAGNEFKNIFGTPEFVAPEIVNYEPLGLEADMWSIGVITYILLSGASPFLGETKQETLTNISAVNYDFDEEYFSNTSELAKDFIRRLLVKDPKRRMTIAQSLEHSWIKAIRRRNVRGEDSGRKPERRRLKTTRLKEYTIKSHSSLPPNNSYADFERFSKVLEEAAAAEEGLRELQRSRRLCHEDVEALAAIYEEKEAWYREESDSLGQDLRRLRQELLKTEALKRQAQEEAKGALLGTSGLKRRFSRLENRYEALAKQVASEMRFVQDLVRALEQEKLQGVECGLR
Description: as §1, §2, §3, §4

[9] = target: T8, CDK2/cyclinE(h) (Homo sapiens, UniProt P24941); type: biochemical
T8 construct: purchased Caliper Life Sciences
Description: as §1, §2, §3, §4

[10] = target: T9, NEK2(h) (Homo sapiens, UniProt P51955); type: biochemical
T9 construct: purchased Caliper Life Sciences
T9 sequence (P51955 1-445): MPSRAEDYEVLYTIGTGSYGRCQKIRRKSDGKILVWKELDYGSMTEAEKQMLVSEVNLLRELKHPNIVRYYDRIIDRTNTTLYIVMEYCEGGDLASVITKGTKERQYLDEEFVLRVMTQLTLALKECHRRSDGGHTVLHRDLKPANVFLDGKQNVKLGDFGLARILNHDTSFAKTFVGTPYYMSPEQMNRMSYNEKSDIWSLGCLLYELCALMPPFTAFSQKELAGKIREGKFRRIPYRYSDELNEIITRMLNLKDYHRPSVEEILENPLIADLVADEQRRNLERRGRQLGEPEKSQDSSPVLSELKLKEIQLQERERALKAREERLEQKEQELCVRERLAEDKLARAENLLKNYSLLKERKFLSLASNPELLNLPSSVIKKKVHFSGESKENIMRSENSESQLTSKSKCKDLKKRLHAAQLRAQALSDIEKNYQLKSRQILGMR
Description: as §1, §2, §3, §4

[11] = target: T10, Tie2(h) (Homo sapiens, UniProt Q02763); type: biochemical
T10 construct: purchased Caliper Life Sciences
T10 sequence (Q02763 23-1124): as the sequence (Q02763 23-1124 R849W) above, with W827R counted along it
Description: as §1, §2, §3, §4

[12] = target: T11, KDR(h) (Homo sapiens, UniProt P35968); type: biochemical
T11 construct: purchased Caliper Life Sciences
T11 sequence (P35968 20-1356): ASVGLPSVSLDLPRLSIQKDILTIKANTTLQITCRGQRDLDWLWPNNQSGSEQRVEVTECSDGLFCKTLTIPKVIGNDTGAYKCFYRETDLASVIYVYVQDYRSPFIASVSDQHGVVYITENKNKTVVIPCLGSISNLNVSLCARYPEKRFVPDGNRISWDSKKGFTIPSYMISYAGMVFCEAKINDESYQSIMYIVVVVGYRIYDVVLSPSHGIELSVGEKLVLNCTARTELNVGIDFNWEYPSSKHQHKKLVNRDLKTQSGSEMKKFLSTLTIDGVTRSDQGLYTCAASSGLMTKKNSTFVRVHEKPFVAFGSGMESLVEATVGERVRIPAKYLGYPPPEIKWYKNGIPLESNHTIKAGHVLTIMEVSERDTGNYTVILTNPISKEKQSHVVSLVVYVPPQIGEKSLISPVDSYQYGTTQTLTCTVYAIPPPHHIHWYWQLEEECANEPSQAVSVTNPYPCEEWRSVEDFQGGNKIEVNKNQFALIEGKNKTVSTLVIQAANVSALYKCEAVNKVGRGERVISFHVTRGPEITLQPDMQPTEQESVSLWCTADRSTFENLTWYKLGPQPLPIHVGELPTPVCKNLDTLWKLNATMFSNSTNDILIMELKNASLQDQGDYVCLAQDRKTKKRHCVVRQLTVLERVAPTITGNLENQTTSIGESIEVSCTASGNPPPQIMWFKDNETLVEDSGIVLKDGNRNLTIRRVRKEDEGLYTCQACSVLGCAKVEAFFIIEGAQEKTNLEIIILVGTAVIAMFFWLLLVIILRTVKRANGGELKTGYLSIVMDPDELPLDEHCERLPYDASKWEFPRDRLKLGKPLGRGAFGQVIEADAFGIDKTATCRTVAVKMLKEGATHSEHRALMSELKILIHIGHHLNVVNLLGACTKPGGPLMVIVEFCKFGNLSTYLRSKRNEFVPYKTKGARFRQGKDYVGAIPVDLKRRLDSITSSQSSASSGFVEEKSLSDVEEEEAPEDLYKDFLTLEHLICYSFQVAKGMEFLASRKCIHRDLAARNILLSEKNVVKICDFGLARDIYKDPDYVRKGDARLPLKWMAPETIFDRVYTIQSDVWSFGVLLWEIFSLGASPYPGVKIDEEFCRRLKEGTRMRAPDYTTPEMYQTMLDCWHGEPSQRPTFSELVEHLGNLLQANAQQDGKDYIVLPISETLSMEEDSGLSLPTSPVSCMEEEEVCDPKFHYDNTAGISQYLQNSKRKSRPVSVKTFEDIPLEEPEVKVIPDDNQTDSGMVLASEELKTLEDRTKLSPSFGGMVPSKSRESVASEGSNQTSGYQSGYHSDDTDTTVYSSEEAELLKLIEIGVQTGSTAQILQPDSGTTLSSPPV
Description: as §1, §2, §3, §4

Row | Structure (SMILES) | % inhibition AMPK(r) ([1]; 1 μM) [%] | % inhibition Ret(h) ([2]; 1 μM) [%] | % inhibition IRAK4(h) ([3]; 1 μM) [%] | % inhibition Tie2(R849W)(h) ([4]; 1 μM) [%] | % inhibition Abl(T315I)(h) ([5]; 1 μM) [%] | % inhibition PDK1(h) ([6]; 1 μM) [%] | % inhibition FGFR4(h) ([7]; 1 μM) [%] | % inhibition ZIPK(h) ([8]; 1 μM) [%] | % inhibition CDK2/cyclinE(h) ([9]; 1 μM) [%] | % inhibition NEK2(h) ([10]; 1 μM) [%] | % inhibition Tie2(h) ([11]; 1 μM) [%] | % inhibition KDR(h) ([12]; 1 μM) [%] | further results
1 | C=C[C@@H]1C[C@@H]2/C=C/COc3cccc(c3)Nc3ncc(F)c(n3)N[C@H]2[C@H]1C(N)=O (single isomer, unassigned) [Example 3] | 92 | 78 | 82 | 93 | 92 | 102 | 122 | 118 | 114 | 95 | 99 | 95 | –
2 | CC[C@@H]1C[C@@H]2CCCOc3cccc(c3)Nc3ncc(F)c(n3)N[C@H]2[C@H]1C(N)=O (single isomer, unassigned) [Example 5] | 58 | 52 | 81 | 92 | 103 | 92 | 94 | 110 | 109 | 110 | 104 | 70 | –
3 | CC[C@@H]1C[C@@H]2/C=C\COc3cccc(c3)Nc3ncc(F)c(n3)N[C@H]2[C@H]1C(N)=O (single isomer, unassigned) [Example 6] | 51 | 12 | 52 | 91 | 89 | 90 | 96 | 112 | 107 | 107 | 119 | 62 | –
4 | NC(=O)[C@H]1[C@H]2C[C@H]3[C@H]1Nc1nc(ncc1F)Nc1cccc(c1)CSS[C@@H]3C2 [Example 10] | 86 | 7 | 3 | 41 | 47 | 96 | 128 | 118 | 23 | 49 | 101 | 32 | –
5 | NC(=O)[C@H]1[C@H]2C[C@H]3[C@H]1Nc1nc(ncc1F)Nc1cccc(c1)C(=O)CS[C@@H]3C2 [Example 11] | 97 | 56 | 90 | 103 | 95 | 98 | 100 | 84 | 92 | 98 | 91 | 101 | –
6 | NC(=O)[C@H]1[C@H]2C[C@H]3[C@H]1Nc1nc(ncc1F)Nc1cccc(c1)OCCS[C@@H]3C2 [Example 20] | 81 | 11 | 12 | 14 | 34 | 80 | 102 | 93 | 69 | 103 | 8 | 8 | –
7 | O=C(O)[C@H]1[C@H]2C[C@H]3[C@H]1Nc1nc(ncc1F)Nc1cccc(c1)OCCS[C@@H]3C2 [Example 21] | – | – | – | – | – | – | – | – | – | – | – | – | % inhibition AMPK(r) ([1]; 10 μM): 57%; % inhibition Ret(h) ([2]; 10 μM): 35%; % inhibition IRAK4(h) ([3]; 10 μM): 31%; % inhibition Tie2(R849W)(h) ([4]; 10 μM): 35%; % inhibition Abl(T315I)(h) ([5]; 10 μM): 38%; % inhibition PDK1(h) ([6]; 10 μM): 78%; % inhibition FGFR4(h) ([7]; 10 μM): 81%; % inhibition ZIPK(h) ([8]; 10 μM): 86%; % inhibition CDK2/cyclinE(h) ([9]; 10 μM): 89%; % inhibition NEK2(h) ([10]; 10 μM): 92%; % inhibition Tie2(h) ([11]; 10 μM): 33%; % inhibition KDR(h) ([12]; 10 μM): 10%
8 | CN1CCN(c2ccc3cc2OCCS[C@@H]2C[C@@H]4C[C@H]2[C@@H](Nc2nc(ncc2F)N3)[C@H]4C(N)=O)CC1 [Example 22] | 65 | 4 | 52 | 57 | 13 | 112 | 87 | 95 | 133 | 96 | 46 | 41 | –
9 | CN1CCN(c2ccc3cc2NC(=O)CS[C@@H]2C[C@@H]4C[C@H]2[C@@H](Nc2nc(ncc2F)N3)[C@H]4C(N)=O)CC1 [Example 24] | 68 | 1 | 19 | 28 | 0 | 108 | 50 | 109 | 100 | 101 | 8 | 8 | –
10 | N#Cc1ccc2cc1NC(=O)CS[C@@H]1C[C@@H]3C[C@H]1[C@@H](Nc1nc(ncc1F)N2)[C@H]3C(N)=O [Example 26] | 79 | 50 | 43 | 26 | 2 | 88 | 53 | 106 | 15 | 79 | 44 | 8 | –
